# Measured values taken from the PolyMetriX glass transition set.
# ± gives the standard deviation of the reports.
row,Structure (SMILES),glass transition temperature [°C]
1,*Oc1ccc(C(CCCC)(CCCC)c2ccc(OC(*)=O)cc2)cc1 (repeat unit),113.00
2,*CCCCOCCCCOCCCCOC(=O)c1ccc(/N=C/c2cc(OCCCCCC)c(/C=C/c3cc(OCCCCCC)c(/C=C/c4cc(OCCCCCC)c(/C=N/c5ccc(C(=O)O*)cc5)cc4OCCCCCC)cc3OCCCCCC)cc2OCCCCCC)cc1 (repeat unit),14.30
3,*CC(c1ccccc1)C1C(=O)N(C(C)(C)C)C(=O)C1* (repeat unit),178.00
4,*CCOC(=O)CCCCCCCCC(=O)OCCOC(=O)c1ccc(C(=O)O*)cc1 (repeat unit),-6.50
5,*c1nc(-c2ccccc2)nc(N(CCCCCCN(*)c2ccccc2)c2ccccc2)n1 (repeat unit),74.00
6,*CC(*)C(=O)OC(CC)CC (repeat unit),-6.00
7,*c1ccc(-c2ccc(-c3ccc([Si](C)(C)[Si](*)(C)C)s3)s2)s1 (repeat unit),45.00
8,*CC(*)c1ccc(C(C)(O)CCC)cc1 (repeat unit),135.00
9,*c1ccc(Oc2ccc(C(=O)c3cccc(C(=O)c4ccc(Oc5ccc(-c6nc(-c7cccc(-c8nc(*)c(-c9ccccc9)[nH]8)c7)[nH]c6-c6ccccc6)cc5)cc4)c3)cc2)cc1 (repeat unit),256.50
10,*CC(O)COC(=O)CCCCCCC(=O)OCC(O)COc1ccc(C(C)(C)c2ccc(O*)cc2)cc1 (repeat unit),35.00
11,*CC(*)C(=O)OCCCCCCCOC(=O)c1ccc(OC(=O)c2ccc(C#N)cc2)cc1 (repeat unit),20.00
12,*Oc1ccc(P(C)(=O)c2ccc(*)cc2)cc1 (repeat unit),238.00
13,*/C=C/c1ccc(*)cc1 (repeat unit) [Poly(p-phenylenevinylene)s],137.42 ± 150
14,*CCCCCCCCCCCCNC(=O)NCCCCCCNC(=O)N* (repeat unit),49.00
15,*CC(O)COc1ccc(C2CC(C(C)C)CCC2(C)c2ccc(O*)cc2)cc1 (repeat unit),175.00
16,*OC(=O)c1ccc(C(C)(C)c2ccc(C(*)=O)cc2)cc1 (repeat unit),100.00
17,*CCCCCOC(=O)c1cccc(C(=O)O*)c1 (repeat unit),7.00
18,*Nc1ccc(Cc2ccc(NC(=O)NCCCCCCCCNC(*)=O)cc2)cc1 (repeat unit),50.00
19,*O[Si](C)(C)c1cccc2c([Si](*)(C)C)cccc12 (repeat unit),62.00
20,*CCCC1(CCCNC(=O)CCCCCCCCC(=O)N*)c2ccccc2-c2ccccc21 (repeat unit),85.00
21,*/C=C/c1ccc(OC(=O)CCCCCCCCC(=O)Oc2ccc(-c3nnc(*)s3)cc2)cc1 (repeat unit),30.00

row,Structure (SMILES),glass transition temperature [°C]
1,*CC(COC(=O)O*)OCCCCCCOc1ccc(/C=C/c2ccc([N+](=O)[O-])cc2)cc1 (repeat unit),32.00
2,*C1(C)CC(*)(C)C(=O)N(C)C1=O (repeat unit),170.00
3,*OC(F)(C(=O)[N]([Li])S(=O)(=O)C(F)(F)C(*)(F)F)C(F)(F)F (repeat unit),67.00
4,*NNC(=O)c1ccc(C(*)=O)cc1OCC (repeat unit),240.00
5,*Oc1ccc(CC(NC(=O)CCc2ccc(OC(=O)CCCCCCC(*)=O)cc2)C(=O)OCC)cc1 (repeat unit),50.00
6,*CC(*)C(=O)Oc1ccc(C(=O)OCCCC)cc1 (repeat unit),13.00
7,*CCCCCCCCCCCOC(=O)Nc1ccc(NC(=O)OCCCCCCCCCCCOc2ccc(-c3ccc(O*)cc3)cc2)c(C)c1 (repeat unit),77.00
8,*CC1(*)CCCCC1 (repeat unit),100.00
9,*OC(=O)OC1CC2CC(*)CC(C1)O2 (repeat unit),207.00
10,*CC(C[N-][N+]#N)(C[N-][N+]#N)CO* (repeat unit),-30.00
11,*CCN(*)C (repeat unit),-31.00
12,*CCc1ccc(CCNC(=O)CCCCCCCCCCCCCCCCC(=O)N*)cc1 (repeat unit),75.00
13,*/C=C/C1CC(*)C2C3CCC(C3)C12 (repeat unit),207.40
14,*CCCCCCNC(=O)CCc1ccc(C(C)CC(=O)N*)cc1 (repeat unit),77.00
15,*Oc1c(C)cc(C(C)(C)c2cc(C)c(OC(*)=O)c(C)c2)cc1C (repeat unit),193.00
16,*CC(*)(CC(=O)Oc1ccc(OC)cc1)C(=O)Oc1ccc(OC)cc1 (repeat unit),119.50
17,*CC(*)C(=O)OCc1c(Br)c(Br)c(Br)c(Br)c1Br (repeat unit),181.00
18,*CC(COCCCCCC)O* (repeat unit),-85.50
19,*/C=C/c1ccc(N(C)CCOC(=O)Nc2ccc(C)c(NC(=O)OCCN(C)c3ccc(/C=C/C4=CC(=C(C#N)C#N)C=C(*)O4)s3)c2)s1 (repeat unit),183.00
20,*Oc1cccc(C(=O)c2ccc(*)cc2)c1 (repeat unit),137.00

# Continued, values first:
row,glass transition temperature [°C],Structure (SMILES)
1,252.00,*Oc1ccc(NC(=O)c2ccc(S(=O)(=O)c3ccc(C(=O)Nc4ccc(Oc5ccc(C6(c7ccc(*)cc7)C7CC8CC(C7)CC6C8)cc5)cc4)cc3)cc2)cc1 (repeat unit)
2,213.00,*Nc1ccc(C(=O)c2ccc(C(=O)c3ccc(Nc4ccc5c(c4)c4cc(*)ccc4n5CC(CC)CCCC)cc3)cc2)cc1 (repeat unit)
3,219.00,*c1ccc(Oc2ccc(-c3nc(-c4cccc(-c5nnc(-c6ccccc6)c(*)n5)n4)nnc3-c3ccccc3)cc2)cc1 (repeat unit)
4,234.00,*c1ccc2c(c1)C(=O)N(c1ccc(OC(C)COc3ccc(N4C(=O)c5ccc(C(*)(C(F)(F)F)C(F)(F)F)cc5C4=O)cc3)cc1)C2=O (repeat unit)
5,162.00,*Oc1ccc(Oc2ccc(C(=O)c3ccc(*)cc3)cc2)cc1-c1cc(C)cc(C)c1 (repeat unit)
6,241.00,*c1ccc(Oc2ccc(-c3ccc(Oc4ccc(-c5nc(*)nc(-c6ccccc6)n5)cc4)cc3)cc2)cc1 (repeat unit)
7,404.00 ± 8.5,*C(=O)c1ccc2c(c1)C(=O)N(c1c(C)cc(C)c(N3C(=O)c4ccc(*)cc4C3=O)c1C)C2=O (repeat unit)
8,94.00,*c1ccc2oc(-c3cc(OCCCCCCCCCC)c(-c4nc5cc(C(*)(C(F)(F)F)C(F)(F)F)ccc5o4)cc3OCCCCCCCCCC)nc2c1 (repeat unit)
9,125.00,*Oc1ccc2cc(OC(=O)c3cccc(Oc4ccc(Oc5cccc(C(*)=O)c5)cc4)c3)ccc2c1 (repeat unit)
10,161.00,*Oc1ccc(C(C)(C)c2ccc(OC(=O)c3ccccc3-c3ccccc3C(*)=O)cc2)cc1 (repeat unit)
11,312.00,*C(=O)Nc1ccc(S(=O)(=O)c2ccc(NC(=O)c3ccc4[nH]c(-c5cccc(-c6nc7cc(*)ccc7[nH]6)c5)nc4c3)cc2)cc1 (repeat unit)
12,244.00,*c1ccc(Oc2ccc(C(c3ccc(Oc4ccc(N5C(=O)c6ccc(Oc7c(C)cc(C(C)(C)c8cc(C)c(Oc9ccc%10c(c9)C(=O)N(*)C%10=O)c(C)c8)cc7C)cc6C5=O)cc4)cc3)(C(F)(F)F)C(F)(F)F)cc2)cc1 (repeat unit)
13,251.00,*Oc1ccc(S(=O)(=O)c2ccc(Oc3ccc(-c4ccc(-c5ccc(*)cc5)cc4)cc3)cc2)cc1 (repeat unit)
14,345.00,*c1ccc(-c2nc3ccc(Oc4ccc5nc(*)c(-c6ccccc6)c(-c6ccccc6)c5c4)cc3c(-c3ccccc3)c2-c2ccccc2)cc1 (repeat unit)
15,342.00,*Oc1ccc(C2(c3ccc(OC(=O)c4ccc(C(*)=O)cc4)cc3)c3ccccc3Cc3ccccc32)cc1 (repeat unit)
16,322.00,*C(=O)Nc1ccc(C(=O)Nc2ccc(NC(=O)c3ccc4[nH]c(-c5cccc(-c6nc7cc(*)ccc7[nH]6)c5)nc4c3)cc2)cc1 (repeat unit)
17,282.00,*C(=O)c1ccc2c(c1)C(=O)N(c1cc(C(=O)c3ccccc3)cc(N3C(=O)c4ccc(*)cc4C3=O)c1)C2=O (repeat unit)
18,166.30,*Oc1ccc(C(=O)O)c(C(=O)Nc2ccc(NC(=O)c3cc(*)ccc3C(=O)O)cc2)c1 (repeat unit)
19,412.00,*c1ccc(N2C(=O)c3ccc(C(=O)c4ccc5c(c4)C(=O)N(c4ccc6[nH]c(*)nc6c4)C5=O)cc3C2=O)cc1 (repeat unit)
20,270.00,*c1cccc(-c2nc3cc(Oc4ccc5nc(-c6ccccc6)c(*)nc5c4)ccc3nc2-c2ccccc2)c1 (repeat unit)
21,167.00,*Oc1c(F)c(F)c(-c2c(F)c(F)c(Oc3ccc(C(c4ccc(*)cc4)(C(F)(F)F)C(F)(F)F)cc3)c(F)c2F)c(F)c1F (repeat unit)
22,245.00,*c1ccc(Oc2ccc(N3C(=O)c4ccc(Oc5ccc6ccc(Oc7ccc8c(c7)C(=O)N(*)C8=O)cc6c5)cc4C3=O)cc2)cc1 (repeat unit)
23,352.00,*c1ccc2c(c1)C(=O)N(c1ccc(C3(c4ccc(N5C(=O)c6ccc(C(*)(C(F)(F)F)C(F)(F)F)cc6C5=O)c(F)c4)c4ccccc4-c4ccccc43)cc1F)C2=O (repeat unit)
24,220.00,*Oc1cccc(NC(=O)c2ccc([Si](C)(C)c3ccc(C(*)=O)cc3)cc2)c1 (repeat unit)
25,385.00 ± 20,*c1ccc(Oc2ccc(-n3c(=O)c4cc5c(=O)n(*)c(=O)c5cc4c3=O)cc2)cc1 (repeat unit)
26,229.00,*c1ccc(Oc2ccc(C(=O)c3ccc(Oc4ccc(-c5cc(*)[nH]n5)cc4)cc3)cc2)cc1 (repeat unit)
27,257.00,*c1ccc(Oc2ccc(N3C(=O)C4CCC(C5CCC6C(=O)N(*)C(=O)C6C5)CC4C3=O)cc2)cc1 (repeat unit)
